How the values were obtained:
Format in all cases: biochemical
BRAF^WT = BRAF^WT (Homo sapiens, UniProt P15056); experiment: ELISA-based MEK phosphorylation assay
PAK4 = PAK4 (Homo sapiens, UniProt O96013); experiment: Kinase profiling, PAK4; details: inhibitor concentration of 100 μM
PAK1 = PAK1 (Homo sapiens, UniProt Q13153); experiment: Kinase profiling, PAK1; details: inhibitor concentration of 100 μM
Pim1 = Pim1 (Homo sapiens, UniProt P11309); experiment: Kinase profiling, Pim1; details: inhibitor concentration of 100 μM
Chain of Pim1 (P11309 whole entry, species assumed): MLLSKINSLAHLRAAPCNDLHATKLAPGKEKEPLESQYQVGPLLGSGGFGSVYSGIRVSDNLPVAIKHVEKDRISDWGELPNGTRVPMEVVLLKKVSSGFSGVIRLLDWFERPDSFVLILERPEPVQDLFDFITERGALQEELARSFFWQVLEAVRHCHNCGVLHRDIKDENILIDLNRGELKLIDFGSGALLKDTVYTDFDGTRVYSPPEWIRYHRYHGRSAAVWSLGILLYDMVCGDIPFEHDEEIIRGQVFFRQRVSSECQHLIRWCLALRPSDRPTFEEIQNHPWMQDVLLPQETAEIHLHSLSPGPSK

PI3Kγ = PI3Kγ (Homo sapiens, UniProt P48736); experiment: Kinase profiling, PI3Kγ lipid kinase; details: BRAF versus PI3Kγ
Chain of PI3Kγ (P48736 whole entry, species assumed): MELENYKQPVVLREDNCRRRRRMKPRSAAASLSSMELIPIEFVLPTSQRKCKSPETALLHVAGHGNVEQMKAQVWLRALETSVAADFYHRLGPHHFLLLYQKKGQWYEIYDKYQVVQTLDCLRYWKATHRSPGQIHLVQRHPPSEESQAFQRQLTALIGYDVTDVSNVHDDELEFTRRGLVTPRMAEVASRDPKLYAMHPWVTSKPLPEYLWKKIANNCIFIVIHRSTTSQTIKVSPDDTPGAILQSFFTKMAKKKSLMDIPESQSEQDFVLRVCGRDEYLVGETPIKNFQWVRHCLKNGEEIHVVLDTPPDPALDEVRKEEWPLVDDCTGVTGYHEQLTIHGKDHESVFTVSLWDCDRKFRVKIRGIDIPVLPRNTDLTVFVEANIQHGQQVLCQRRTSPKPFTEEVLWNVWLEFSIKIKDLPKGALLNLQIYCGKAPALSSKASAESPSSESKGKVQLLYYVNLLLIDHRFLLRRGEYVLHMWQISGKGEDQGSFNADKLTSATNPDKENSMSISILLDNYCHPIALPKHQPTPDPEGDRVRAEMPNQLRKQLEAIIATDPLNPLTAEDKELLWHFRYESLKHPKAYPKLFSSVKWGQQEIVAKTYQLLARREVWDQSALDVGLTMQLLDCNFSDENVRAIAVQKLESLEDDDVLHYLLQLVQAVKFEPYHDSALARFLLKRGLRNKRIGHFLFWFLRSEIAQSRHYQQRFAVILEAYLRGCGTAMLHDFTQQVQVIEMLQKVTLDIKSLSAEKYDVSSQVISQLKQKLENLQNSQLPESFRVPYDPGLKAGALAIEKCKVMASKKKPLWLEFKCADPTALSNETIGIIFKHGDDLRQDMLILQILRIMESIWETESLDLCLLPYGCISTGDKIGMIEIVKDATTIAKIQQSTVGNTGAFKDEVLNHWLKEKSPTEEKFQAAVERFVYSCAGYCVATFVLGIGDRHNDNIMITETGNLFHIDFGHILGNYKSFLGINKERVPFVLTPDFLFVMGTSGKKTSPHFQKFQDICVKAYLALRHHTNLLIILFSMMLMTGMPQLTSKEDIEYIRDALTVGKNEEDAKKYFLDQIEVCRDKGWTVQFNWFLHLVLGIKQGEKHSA

GSK3β = GSK3β (Homo sapiens, UniProt P49841); experiment: Kinase profiling, GSK3β; details: inhibitor concentration of 100 μM
Chain of GSK3β (P49841 whole entry, species assumed): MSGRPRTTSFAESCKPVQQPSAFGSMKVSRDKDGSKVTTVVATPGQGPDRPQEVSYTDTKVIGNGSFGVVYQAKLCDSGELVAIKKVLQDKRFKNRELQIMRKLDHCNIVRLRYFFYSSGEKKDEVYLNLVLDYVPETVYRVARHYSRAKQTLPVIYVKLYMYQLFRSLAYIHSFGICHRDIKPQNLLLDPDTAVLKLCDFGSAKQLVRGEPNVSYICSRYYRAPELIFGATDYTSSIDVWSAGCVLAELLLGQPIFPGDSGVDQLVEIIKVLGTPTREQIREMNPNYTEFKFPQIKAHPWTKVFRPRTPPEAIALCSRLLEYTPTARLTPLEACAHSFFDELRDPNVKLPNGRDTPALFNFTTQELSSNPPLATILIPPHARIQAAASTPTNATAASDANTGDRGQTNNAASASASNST

MST1 = target: T1, MST1 (Homo sapiens, UniProt Q13043); experiment: Kinase profiling, MST1; details: inhibitor concentration of 100 μM
T1 sequence (Q13043 1-487): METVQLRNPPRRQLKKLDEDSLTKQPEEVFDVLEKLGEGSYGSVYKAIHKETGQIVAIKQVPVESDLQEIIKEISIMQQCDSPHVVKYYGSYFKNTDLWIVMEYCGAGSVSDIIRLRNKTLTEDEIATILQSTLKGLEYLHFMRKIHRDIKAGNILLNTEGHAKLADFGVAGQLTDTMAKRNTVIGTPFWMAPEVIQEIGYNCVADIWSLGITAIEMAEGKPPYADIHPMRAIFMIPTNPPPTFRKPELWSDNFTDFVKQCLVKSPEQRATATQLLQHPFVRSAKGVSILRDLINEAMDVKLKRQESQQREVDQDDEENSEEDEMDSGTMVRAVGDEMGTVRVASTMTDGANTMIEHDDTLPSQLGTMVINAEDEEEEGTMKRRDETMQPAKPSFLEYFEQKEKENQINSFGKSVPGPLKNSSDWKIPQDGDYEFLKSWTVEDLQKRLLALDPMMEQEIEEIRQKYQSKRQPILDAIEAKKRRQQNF

Chain of BRAF^WT (P15056 433-726): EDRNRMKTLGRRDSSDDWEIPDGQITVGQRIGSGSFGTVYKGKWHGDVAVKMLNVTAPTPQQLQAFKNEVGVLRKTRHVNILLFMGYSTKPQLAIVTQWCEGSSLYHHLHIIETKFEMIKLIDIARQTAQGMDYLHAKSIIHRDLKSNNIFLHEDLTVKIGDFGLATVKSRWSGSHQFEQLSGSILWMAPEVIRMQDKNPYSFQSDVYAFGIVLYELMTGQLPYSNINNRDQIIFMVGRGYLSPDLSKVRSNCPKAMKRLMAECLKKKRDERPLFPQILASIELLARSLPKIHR
Chain of PAK1 (Q13153 whole entry): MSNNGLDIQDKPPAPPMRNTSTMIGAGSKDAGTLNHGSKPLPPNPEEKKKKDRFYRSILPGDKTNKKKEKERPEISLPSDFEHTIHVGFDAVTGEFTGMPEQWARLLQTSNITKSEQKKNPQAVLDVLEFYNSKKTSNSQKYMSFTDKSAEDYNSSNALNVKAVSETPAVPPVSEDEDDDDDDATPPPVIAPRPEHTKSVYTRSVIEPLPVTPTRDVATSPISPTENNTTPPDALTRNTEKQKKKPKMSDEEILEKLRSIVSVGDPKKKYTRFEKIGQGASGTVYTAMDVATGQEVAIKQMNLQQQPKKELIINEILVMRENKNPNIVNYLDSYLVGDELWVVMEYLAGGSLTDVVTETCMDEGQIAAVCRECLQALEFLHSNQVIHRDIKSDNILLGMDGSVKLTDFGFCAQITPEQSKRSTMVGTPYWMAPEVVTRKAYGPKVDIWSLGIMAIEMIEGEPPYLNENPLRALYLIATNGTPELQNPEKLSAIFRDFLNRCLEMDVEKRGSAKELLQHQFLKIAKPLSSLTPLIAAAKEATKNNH
Chain of PAK4 (O96013 whole entry, species assumed): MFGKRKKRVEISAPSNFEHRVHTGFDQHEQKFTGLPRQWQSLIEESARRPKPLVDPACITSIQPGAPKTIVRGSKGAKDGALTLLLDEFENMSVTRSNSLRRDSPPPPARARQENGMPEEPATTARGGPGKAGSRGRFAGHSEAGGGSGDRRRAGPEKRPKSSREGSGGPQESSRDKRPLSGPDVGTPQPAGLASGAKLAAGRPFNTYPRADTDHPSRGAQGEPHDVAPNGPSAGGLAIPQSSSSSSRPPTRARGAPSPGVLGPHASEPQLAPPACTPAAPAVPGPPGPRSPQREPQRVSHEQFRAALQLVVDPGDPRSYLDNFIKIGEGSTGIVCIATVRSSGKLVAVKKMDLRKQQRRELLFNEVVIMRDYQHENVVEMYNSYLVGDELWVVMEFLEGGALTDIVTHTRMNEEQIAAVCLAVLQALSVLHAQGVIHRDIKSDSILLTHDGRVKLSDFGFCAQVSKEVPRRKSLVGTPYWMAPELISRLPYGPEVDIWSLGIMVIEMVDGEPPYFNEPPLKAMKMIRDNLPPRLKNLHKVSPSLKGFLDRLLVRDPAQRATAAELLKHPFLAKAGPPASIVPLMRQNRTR

## CC1Nc2nc(NC(=O)c3ccc[n+](C)c3)[nH]c(=O)c2N(C(=O)c2ccc[n+](C)c2)C1C (stereo not shown) [compound 1]
BRAF^WT; read-out: BRAF kinase activity remaining (of wild-type activity)
  remaining activity at 100 µM: ~80%

## Cn1c(=O)n(Cc2ccccc2)c(=O)c2c1nc(SCCO)n2Cc1ccccc1 [compound 24]
PAK4
  inhibition against PAK4: did not show significant inhibition
PAK1
  inhibition against PAK1: did not show significant inhibition
Pim1
  inhibition against Pim1: did not show significant inhibition
PI3Kγ
  selectivity for BRAF over PI3K lipid kinases: > 12 fold
BRAF^WT; versus GSK3β, Pim1, MST1, PAK1, PAK4
  selectivity for BRAF over other representative protein kinases: more than 50 fold
GSK3β
  inhibition against GSK3β: did not show significant inhibition
MST1
  inhibition against MST1: did not show significant inhibition

## Cn1c(=O)[nH]c(=O)c2c1nc(N/N=C\c1cccc([N+](=O)[O-])c1)n2Cc1ccccc1 [compound 31]
BRAF^WT
  reduction in BRAF inhibitor potency relative to compound 19: ≥ 20 fold

## Cn1c(=O)[nH]c(=O)c2c1nc(N/N=C\c1ccc([N+](=O)[O-])cc1)n2Cc1ccccc1 [compound 32]
BRAF^WT
  reduction in BRAF inhibitor potency relative to compound 19: ≥ 20 fold
